Measured values from patent publication US11072637B2, “Walnut oligopeptide powder, preparation method and application thereof” (Sinphar Tian-Li (Hangzhou) Pharmacy Company Limited, priority 2016, dated 2021).
Values joined by “and” are separate entries in the source; they are usually repeats but may differ in a detail not shown here. Equal values may be shown once. Non-standard residues stand in square brackets, D forms with d. Residues, ends and D or L forms follow the SMILES beside them. pGlu = O=C1CC[C@@H](C(=O)O)N1; Thz = O=C(O)[C@@H]1CSCN1

Experiments:
zebra fish macrophages [1] = assay: Improvement of zebra fish macrophage inhibition (vinorelbine model); assay type: in vivo; details: for number of macrophages of the zebra fish head, Mean ± SD(count): 1.9 μg/mL in fish water, model control 15, normal control 27, n = 10
Description: Improvement Effect of Walnut Oligopeptide Powder on Inhibition of Zebra Fish Macrophages […] Meanwhile, model control group and normal control group were set (no treatment was carried out), in which 30 tail zebra fishes were in each experimental group, and each group was placed in a 28 L incubator to be cultured. When processing to 3 dpf, the zebra fishes in each experiment group were subjected to neutral red staining. After dyeing for 4 hours, 10-tail zebra fishes from each experimental group were selected to be observed under microscope randomly, and photos were taken and stored. Image analysis for the number of the zebra fish macrophages was carried out by image processing software. The improvement effect of the walnut oligopeptide powder on inhibition of the zebra fish macrophage was quantitatively evaluated.

[2] = system: central nervous system of zebra fishes; assay: Protection of zebra fish central nervous system (mycophenolate-induced injury); assay type: in vivo; details: 154 μg/mL
Description: Protection Effect of the Walnut Oligopeptide Powder on the Central Nervous Centrum of Zebra Fishes 180 wild type AB strain zebra fishes after fertilization in […] (1 dpf) were selected randomly and were arranged in six-well plate, and 30 tail zebra fishes were treated in each hole (the experiment group), and central injury of the zebra fishes was induced by the mycophenolate mophol ester. […] After the oligopeptide was subjected to co-treatment for 24 hours with the mycophenolate, the acridine orange was used for dyeing, after dyeing, 10 tail zebra fishes from each experimental group were selected randomly to photograph under fluorescence microscope and collect data, analyzing and counting the fluorescent intensity of the apoptotic cells of central nervous system (brain and spinal cord) of the zebra fishes; the protective effect of the walnut oligopeptide powder on the central nervous system of zebra fishes was evaluated according to the fluorescence intensity.

[3] = system: 40% Ethanol-Induced Memory Reproduction Disorder of Mice; assay: 40% ethanol-induced memory reproduction disorder of mice (jumping table); assay type: in vivo, ICR mouse; details: 40% ethanol model, 30 mg/kg
Description: (§1) The test animal was a cleaning-grade ICR mouse with 18-22 g in weight, the three batches of 300 were provided by Nantong University. Laboratory animal production license is SCXK (Su) 2014-0001, fed by conventional mouse feedstuff, and free drinking water. Before the experiment they were fed in a quiet environment for 1 week, freely-feeding and drinking water, and keeping the room temperature (22±1° C.) and natural day and night rhythm illumination. The mouse was randomly grouped and low, medium and high dosage groups (30, 100 and 300 mg/kg) of walnut oligopeptide (preparation example 1) was provided, the blank group and the model group were given equal-volume distilled water respectively, and 30 mg/kg of nimodipine was administrated in positive control group, respectively filling the stomach for one time every day in each group, and continuously feeding the medicines for 7 days. Jump-table training. […] During testing, the mouse were placed on the jumping table, and time was counted at the same time. The first jumping time of the mouse was recorded, and it was an electric shock incubation period (namely, an error incubation period) and recording the times of jumping within 5 minutes (i.e., the times of errors), was recorded as observation index. […]

[4] = system: Scopolamine-Induced Memory Acquisition Impairment of the Mice; assay: Scopolamine-induced memory acquisition impairment of mice (jumping table); assay type: in vivo, ICR mouse; details: scopolamine model, 30 mg/kg
Description: 1. Test Animal The test animal was a cleaning-grade ICR mouse with 18-22 g in weight, the three batches of 300 were provided by Nantong University. Laboratory animal production license is SCXK (Su) 2014-0001, fed by conventional mouse feedstuff, and free drinking water. Before the experiment they were fed in a quiet environment for 1 week, freely-feeding and drinking water, and keeping the room temperature (22±1° C.) and natural day and night rhythm illumination. 2.1 Influence on Scopolamine-Induced Memory Acquisition Impairment of Mouse The mouse was randomly grouped and low, medium and high dosage groups (30, 100 and 300 mg/kg) of walnut oligopeptide (preparation example 1) was provided, the blank group and the model group were given equal-volume distilled water respectively, and 30 mg/kg of nimodipine was administrated in positive control group, respectively filling the stomach for one time every day in each group, and continuously feeding the medicines for 7 days. Jump-table training. […] During testing, the mouse were placed on the jumping table, and time was counted at the same time. The first jumping time of the mouse was recorded, and it was an electric shock incubation period (namely, an error incubation period) and recording the times of jumping within 5 minutes (i.e., the times of errors), was recorded as observation index.

[5] = system: Sodium Nitrite-Induced Memory Consolidation Disorder of Mice; assay: Sodium nitrite-induced memory consolidation disorder of mice (jumping table); assay type: in vivo, ICR mouse; details: sodium nitrite model, 30 mg/kg
Description: as §1

H2O2 induced PC12 cell = assay: Protection of PC12 cells against hydrogen peroxide damage (MTT); assay type: cell-based; details: 80 μg/ml, 6 hours pre-culture, then 100 μM H2O2 12 hours; model group 57.2
Description: PC12 nerve cell protection model: This is a good model for studying nerve cell physiology, pathology and pharmacology, and also a most common in-vitro drug screening model for studying Parkinson's disease and neuro-fatigue.
PC12 cells were cultured by using a high-sugar DMEM culture medium containing 10% fetal calf serum, and digesting for about 50 seconds by using 0.25% of pancreatin during cell passage, stopping digestion by using a DMEM culture medium containing 10% serum, and adding fresh culture medium to blow the cells uniformly. Cell density passage of 10^5/ml was carried out. 4 ml of culture solution containing cells was added to each bottle of cells, culturing under the conditions of 37° C. and 5% CO2. […]
The 96-well plate was respectively given to 100 μL of the walnut oligopeptide by a certain concentration gradient in each hole, after culturing for 24 hours, the cell vitality was detected by MTT method. […] The cell activity of the model group and the drug delivery group was calculated by taking the average value of the OD value of the control group as 100% of the cell activity. […]
The above groups were cultured under the same conditions, and then subsequent experiments were carried out. The cell activity was detected by MTT method in 96-well plates.

zebra fish macrophages [6] = assay: Promotion of phagocytosis function of zebra fish macrophages (ink model); assay type: in vivo; details: 200 μg/mL
Description: 2. Promotion Effect of Walnut Oligopeptide Powder on Phagocytosis Function of Zebra Fish Macrophages
Zebra fish macrophage promoting model inhibition model was built by intravenous injection of ink in 2 days (2 dpf) zebra fishes after fertilization. respectively dissolved in fish water to give the walnut oligopeptide and the positive drug pidotimod, […], and the concentration of the pidotimod is 200 […]. Meanwhile, model control group and normal control group were set, in which 30 tail zebra fishes are in each experimental group, and each group was placed in a 28 L incubator to be cultured. When processing to 3 dpf, the zebra fishes in each experiment group were subjected to neutral red staining, after dyeing for 4 hours, 10-tail zebra fishes from each experimental group were selected to be observed under microscope randomly, and photos were taken and stored; image analysis for the ink signal of the zebra fish macrophages was carried out by image processing software. The improvement effect of four test samples on phagocytosis function of the zebra fish macrophages was quantitatively evaluated.

SMILES: COc1ccc2cc3[n+](cc2c1OC)CCc1cc2c(cc1-3)OCO2 [Berberine, berberine]
- number of macrophages of the zebra fish head, Mean ± SD(count) (zebra fish macrophages [1]): 20 ± 4 count
- number of macrophages of the zebra fish head, Mean ± SD(count) (zebra fish macrophages [1]; listed as berberine): 20 count
- Improvement Effect (%) (zebra fish macrophages [1]; 1.9 μg/mL, compared with model control group): 41.67%

SMILES: N[C@@H](CCC(=O)N[C@@H](CS)C(=O)NCC(=O)O)C(=O)O [GSH, glutathione]
- Protection Effect on Central Nervous System (%) [2]: 92%
- fluorescence intensity of central apoptosis cell (pixel)(mean ± SE) ([2]; 24 hours co-treatment with mycophenolate, model 565783, normal 161976): 190000 pixel and 193900 ± 8302 pixel

SMILES: COCCOC(=O)C1=C(C)NC(C)=C(C(=O)OC(C)C)C1c1cccc([N+](=O)[O-])c1 (centres unmarked) [Nimodipine, nimodipine]
- Incubation Period ([3]; gavage once daily 7 days, n = 8, model 46.3): 99.6 ± 98.7 s
- Times of Error (n) ([3]; within 5 minutes, model 5.7): 2.5 ± 1.4 n
- Incubation Period ([4]; gavage once daily 7 days, n = 10, model 14.6): 35.9 ± 30.3 s
- Times of Error (n) ([4]; within 5 minutes, model 3.5): 2.0 ± 1.4 n
- Incubation Period ([5]; gavage once daily 7 days, n = 10, model 94.7): 237.7 ± 79.7 s
- Times of Error (n) ([5]; within 5 minutes, model 3.6): 1.0 ± 1.2 n

SMILES: CC(=O)N[C@@H](CS)C(=O)O [Positive group, NAC]
- Cell activity(%) (H2O2 induced PC12 cell): 88.0%

SMILES: O=C1CC[C@@H](C(=O)N2CSC[C@H]2C(=O)O)N1 [pidotimod] ([pGlu]-[Thz]-OH)
- Promotion Effect (time) (zebra fish macrophages [6]; compared with model control group): 2.3 time
- number of macrophages of the phagocytosis ink, Mean ± SD(count) (zebra fish macrophages [6]; model control 1.5, n = 10): 3.5 count and 3.5 ± 1.8 count
